In patent publication US4716222A, “Substrates for hydrolases” (Hoechst Aktiengesellschaft, priority 1984, dated 1987):

Experiments:
[1] = Test paper moistened with a blood plasma solution; conditions: paper impregnated with ethanol solution containing 0.01% substrate
Text: The crude product was purified on a chromatography column (stationary phase: silica gel; mobile phase: CHCl3 +glacial acetic acid 19:1).

α-glucosidase = assay: Kinetic determination of α-glucosidase activity in human urine; format: biochemical
Text: The activity of α-glucosidase in human urine can be determined very sensitively in a kinetic test with the new substrate 2H-7-0-(α-D-glucopyranosyl)-4-methyl-8-nitrobenzopyran-2-one (compound S1, see Example 1). Since the pH optimum of α-glucosidase is 4 to 6, the activity cannot be measured kinetically with the hitherto customary substrate p-nitrophenyl α-glucopyranoside because the released nitrophenol has only a very low extinction at 405 nm (Table 1).
In contrast, with compound S1 as substrate an absorbance difference in normal human urine of 0,040 per minute could be measured in a kinetic test, and thus the automation of this determination is possible.
A further possibility for the kinetic determination of α-glucosidase activity is the use of 3-H-7-O-(α-glucopyranosyl)phenoxazin-3-one (resorufin-α-D-glucopyranoside). […] At 37°, using 400 μl reagent and 200 μl urine an absorbance difference of 0.136 α per minute was found.

β-glucosidase = assay: Specificity check with purified β-glucosidase; format: biochemical
β-galactosidase [2] = target: T1, β-galactosidase (Homo sapiens, UniProt P06280); assay: Kinetic determination of galactosidase in human urine with the α-D-galactopyranosyl nitropyridine substrate; format: biochemical; conditions: 0.2 ml 10-fold concentrated normal urine + 1 ml buffered substrate solution, 405 nm, 22° C.
T1 construct: from tissue; host or cells: human urine, 10-fold concentrated
T1 sequence (P06280 32-429): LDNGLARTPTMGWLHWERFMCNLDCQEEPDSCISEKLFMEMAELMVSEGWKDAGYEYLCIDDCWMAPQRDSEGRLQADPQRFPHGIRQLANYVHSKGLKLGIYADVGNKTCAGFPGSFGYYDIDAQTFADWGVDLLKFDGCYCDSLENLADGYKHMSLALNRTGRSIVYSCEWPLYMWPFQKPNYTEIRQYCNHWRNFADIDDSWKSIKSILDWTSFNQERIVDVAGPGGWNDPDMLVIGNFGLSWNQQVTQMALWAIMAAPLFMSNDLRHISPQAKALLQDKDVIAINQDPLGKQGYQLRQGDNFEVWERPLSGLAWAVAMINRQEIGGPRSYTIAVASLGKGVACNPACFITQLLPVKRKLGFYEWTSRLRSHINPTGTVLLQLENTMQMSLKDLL
Experimental: (§1) The activity of the β-galactosidase in human urine could be kinetically determined by the use of 3-O-([…])-3-hydroxy-2-nitropyridine. For this purpose 0.2 ml of 10-fold concentrated normal urine was added to 1 ml of buffered substrate solution and the extinction change recorded at 405 nm and 22° C. Under these conditions an extinction difference of 1.2 mE/min was measured.

β-galactosidase [3] = assay: Cleavage of the substrate by β-galactosidase (specificity); format: biochemical
Experimental: as §1
(§2) The β-galactosidase activity could be kinetically measured in human urine by the use of 2H-7-O-(β-D-galactopyranosyl)-4-methyl-8-nitrobenzopyran-2-one (compound S15). An extinction change of 4 mE/min was recorded at 23° C. and 366 nm with the use of 200 μl of buffered substrate solution and 200 μl of urine of normal concentration. […] Also, β-galactosidase in human urine could be kinetically determined by using resorufin-β-D-galactopyranoside (compound S6). […] The activity of β-glucuronidase in human urine could be kinetically measured with 2H-7-O-(β-D-glucuronopyranosyl)-4-methyl-8-nitrobenzopyran-2-one (compound S9).

β-glucuronidase = target: T2, β-glucuronidase (Homo sapiens, UniProt P08236); assay: Determination of β-glucuronidase in human urine; format: biochemical; conditions: human urine concentrate, pH 5, 30° C., 366 nm
T2 construct: from tissue; host or cells: human urine concentrate
T2 sequence (P08236 23-651): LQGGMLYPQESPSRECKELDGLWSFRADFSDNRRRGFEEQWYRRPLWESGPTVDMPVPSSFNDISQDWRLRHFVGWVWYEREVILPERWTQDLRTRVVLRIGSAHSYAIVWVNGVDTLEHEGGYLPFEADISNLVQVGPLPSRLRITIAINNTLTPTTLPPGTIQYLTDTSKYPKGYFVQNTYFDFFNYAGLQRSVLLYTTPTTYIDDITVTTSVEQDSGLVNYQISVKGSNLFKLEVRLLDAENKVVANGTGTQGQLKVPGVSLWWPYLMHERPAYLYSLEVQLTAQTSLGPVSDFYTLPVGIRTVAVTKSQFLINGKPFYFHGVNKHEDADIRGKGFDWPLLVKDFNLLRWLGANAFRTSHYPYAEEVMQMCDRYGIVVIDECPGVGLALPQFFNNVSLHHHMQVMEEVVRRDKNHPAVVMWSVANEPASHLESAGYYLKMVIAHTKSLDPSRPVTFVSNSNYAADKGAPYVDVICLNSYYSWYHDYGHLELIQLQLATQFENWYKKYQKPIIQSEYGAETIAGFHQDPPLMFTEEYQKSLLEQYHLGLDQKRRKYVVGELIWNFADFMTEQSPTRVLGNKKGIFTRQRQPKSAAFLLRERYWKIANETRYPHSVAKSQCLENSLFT
Experimental: as §2
In this case, 0.1 ml of urine concentrate was added to 0.6 ml of buffered substrate solution and the activity recorded at pH 5, 30° C. and 366 nm. Under these conditions an absorbance difference of 0,014 A/min was measured. Consequently the determination is many times more sensitive than with the customary p-nitrophenyl substrate (Table 4).

SMILES: Cc1ccc(S(=O)(=O)NCC(=O)N2CCC[C@H]2C(=O)N[C@@H](CCCNC(=N)N)C(=O)Oc2ccc3c(c2)oc2cc(=O)ccc-2[n+]3[O-])cc1 [Tos-Gly-Pro-Arg-resazurin]
- coloration of test paper [1]: immediate blue-violet coloration

SMILES: Cc1cc(=O)oc2c([N+](=O)[O-])c(O[C@H]3O[C@H](CO)[C@@H](O)[C@H](O)[C@H]3O)ccc12 [compound S1, 2H-7-O-(α-D-Glucopyranosyl)-4-methyl-8-nitrobenzopyran-2-one]
- absorbance difference per minute (α-glucosidase; normal human urine, kinetic test): 0,040 per minute
- cleavage by β-glucosidase / specificity for α-glucosidase (β-glucosidase): not cleaved by β-glucosidase

SMILES: O=[N+]([O-])c1ncccc1O[C@H]1O[C@H](CO)[C@H](O)[C@H](O)[C@H]1O [compound S3, 3-O-(α-D-Galactopyranosyl)-2-nitropyridine]
- extinction difference (β-galactosidase [2]): 1.2 mE/min
- cleavage by β-galactosidase (β-galactosidase [3]): not cleaved by β-galactosidase

SMILES: Cc1cc(=O)oc2c([N+](=O)[O-])c(O[C@@H]3O[C@H](C(=O)O)[C@@H](O)[C@H](O)[C@H]3O)ccc12 [compound S9, 2H-7-O-(1-β-D-Glucuronopyranosyl)-4-methyl-8-nitrobenzopyran-2-one]
- delta A/min (β-glucuronidase): 0,014 A/min

SMILES: O=c1ccc2nc3ccc(O[C@H]4O[C@H](CO)[C@@H](O)[C@H](O)[C@H]4O)cc3oc-2c1 [resorufin-α-D-glucopyranoside, 3-H-7-O-(α-glucopyranosyl)phenoxazin-3-one]
- absorbance difference per minute (α-glucosidase; 37°, 400 μl reagent and 200 μl urine, 578 nm, pH 6): 0.136 per minute
- cleavage by β-glucosidase / specificity for α-glucosidase (β-glucosidase): specific substrate for α-glucosidase
